Measured values published in US20130102009A1, “SIRTUIN ACTIVATORS AND ACTIVATION ASSAYS” (priority 2010, published 2013).

Assays:
TAMRA-peptide = assay: ITC binding of STACs to TAMRA-peptide; settings: 26° C., pH 7.3, read-out: Kd for the binding of activator to TAMRA-peptide
Protocol: ITC experiments were performed using either a VP-ITC system or iTC200 system (MicroCal) at 26° C. in a buffer composed of 137 mM NaCl, 2.7 mM KCl, 1 mM MgCl2, 2 mM TCEP, 5% (v/v) glycerol and 50 mM HEPES-NaOH, pH 7.3. SIRT1(183-664) was purified and dialyzed against the buffer, centrifuged, and degassed before the experiment. The peptide and compounds were dissolved in the final dialysis buffer and their pH values were adjusted to match that of the protein solution. […] To characterize this interaction using the iTC200 system, 1 mM TAMRA-peptide was injected in 20 aliquots of 2 μL, (except the first injection, which was 0.5 μL) into a 0.202 mL sample cell containing 100 μM STAC. For STACs with poor solubility, the concentrations were adjusted accordingly. […] In all cases, data was corrected for the heat of dilution and fitted using a nonlinear least-squares routine using a single-site binding model with Origin for ITC v7.0383 (Microcal) with the stoichiometry (n), the enthalpy of the reaction (ΔH) and the association constant (Ka) calculated.

SIRT1 [1] = biological target: T1, SIRT1 (Homo sapiens, UniProt Q96EB6); assay: Mass spectrometry based SIRT1 activation assay (TAMRA/5TMR-labeled 20mer peptide); assay type: biochemical; settings: for Emax: 25 min, percent maximum fold activation of SIRT1, read-out: % FOLD ACT.; for EC1.5 uM: concentration that results in 150% activation of SIRT1
T1 sequence (Q96EB6 1-747): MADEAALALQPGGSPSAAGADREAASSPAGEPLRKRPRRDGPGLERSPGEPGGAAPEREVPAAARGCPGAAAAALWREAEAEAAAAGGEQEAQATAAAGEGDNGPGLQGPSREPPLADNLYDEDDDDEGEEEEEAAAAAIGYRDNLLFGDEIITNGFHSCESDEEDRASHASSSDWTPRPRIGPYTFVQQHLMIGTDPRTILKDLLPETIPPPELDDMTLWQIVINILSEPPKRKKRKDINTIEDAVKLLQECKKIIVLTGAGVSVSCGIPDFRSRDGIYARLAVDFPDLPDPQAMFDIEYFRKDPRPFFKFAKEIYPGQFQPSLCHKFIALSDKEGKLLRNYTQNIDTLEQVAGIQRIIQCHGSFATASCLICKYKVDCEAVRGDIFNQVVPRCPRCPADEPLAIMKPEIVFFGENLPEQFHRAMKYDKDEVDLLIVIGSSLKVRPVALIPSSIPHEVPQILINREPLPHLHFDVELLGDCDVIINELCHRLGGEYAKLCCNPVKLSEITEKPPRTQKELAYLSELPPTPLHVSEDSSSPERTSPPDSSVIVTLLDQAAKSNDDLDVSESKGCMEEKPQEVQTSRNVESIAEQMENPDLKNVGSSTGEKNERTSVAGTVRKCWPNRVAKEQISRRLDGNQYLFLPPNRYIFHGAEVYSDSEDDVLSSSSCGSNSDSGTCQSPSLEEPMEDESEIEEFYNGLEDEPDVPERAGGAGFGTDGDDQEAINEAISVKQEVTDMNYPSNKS
From the text: A mass spectrometry based assay was used to identify modulators of SIRTI activity. The mass spectrometry based assay utilizes a peptide having 20 amino acid residues as follows: Ac-EE-K(biotin)-GQSTSSHSK(Ac)NleSTEG-K(5TMR)-EE-NH2 (SEQ ID NO: 1) wherein K(Ac) is an acetylated lysine residue and Nle is a norleucine. The peptide is labeled with the fluorophore 5TMR (excitation 540 nrnIemission 580 nm) at the C-terminus. The sequence of the peptide substrate is based on p53 with several modifications. In addition, the methionine residue naturally present in the sequence was replaced with the norleucine because the methionine may be susceptible to oxidation during synthesis and purification.
The mass spectrometry assay is conducted as follows: 0.5 J-1M peptide substrate and 120 μM βNAD^+ is incubated with 10 nM SIRT1 for 25 minutes at 25° C. in a reaction buffer (50 mM Tris-acetate pH 8, 137 mM NaCl, 2.7 mM KCl, 1 mM MgClz, 5 mM DTT, 0.05% BSA). Test compounds may be added to the reaction as described above. The SirTI gene is cloned into a T7-promoter containing vector and transformed into BL21 (DE3). After the 25 minute incubation with SIRT1, 10 μL of 10% formic acid is added to stop the reaction. Reactions are sealed and frozen for later mass spec analysis. Determination of the mass of the substrate peptide allows for precise determination of the degree of acetylation (i.e. starting material) as compared to deacetylated peptide (product).
A control for inhibition of sirtuin activity is conducted by adding 1 μL of 500 mM nicotinamide as a negative control at the start of the reaction (e.g., permits determination of maximum sirtuin inhibition). A control for activation of sirtuin activity is conducted using 10 nM of sirtuin protein, with 1 μL of DMSO in place of compound, to determine the amount of deacetylation of the substrate at a given timepoint within the linear range of the assay. This timepoint is the same as that used for test compounds and, within the linear range, the endpoint represents a change in velocity.
For the above assay, SIRTI protein was expressed and purified as follows. The SirT1 gene was cloned into a T7-promoter containing vector and transformed into BL21(DE3). The protein was expressed by induction with 1 mM IPTG as an N-terminal His-tag fusion protein at 18° C. overnight and harvested at 30,000×g. Cells were lysed with lysozyme in lysis buffer (50 mM Tris-HCl, 2 mM Tris[2-carboxyethyl]phosphine (TCEP), 10 μM ZnCl2, 200 mM NaCl) and further treated with sonication for 10 min for complete lysis. The protein was purified over a Ni-NTA column (Amersham) and fractions containing pure protein were pooled, concentrated and run over a sizing column (Sephadex S200 26/60 global). The peak containing soluble protein was collected and run on an Ion-exchange column (MonoQ). Gradient elution (200 mM-500 mM NaCl) yielded pure 20 protein. This protein was concentrated and dialyzed against dialysis buffer (20 mM TrisHCl, 2 mM TCEP) overnight. The protein was aliquoted and frozen at −80° C. until further use.
Sirtuin modulating compounds that activated SIRT1 were identified using the assay described above and are shown below in Table 4. The EC1.5 values represent the concentration of test compounds that result in 150% activation of SIRT1. The EC1.5 values for the activating compounds are represented by A (EC1.5≦1 μM), B (EC1.5>1 μM). The percent maximum fold activation is represented by A (Fold activation ≧200%) or B (Fold Activation <200%).

SIRT1 [2] = biological target: T1, SIRT1; assay: Mass spectroscopic kinetic assay of SIRT1-catalyzed deacetylation of 20mer peptides; assay type: biochemical; settings: substrate TAMRA-peptide
Protocol: Bovine glutamate dehydrogenase (GDH), α-ketoglutarate, NADH and NAD^+ were from Sigma Chemical Company. […] The nicotinamidase PNC1 was prepared as described by Denu and colleagues (Smith et al. (2009) Anal Biochem 394, 101-109). Our collection of approximately 5,000 SIRT1 activators was screened using the BioTrove mass spectrometry system, as previously described (Milne et al. (2007) Nature 450, 712-716). […] Compounds were present at 10 μM, and the assays were conducted in a pH 7.4 buffer containing 150 mM Tris, 5 mM DTT, 1% DMSO, and 0.025% BSA. To determine the interaction of STACs with SIRT1 two kinetic methods were employed. […] (2007) Nature 450, 712-716). The other, used with peptides of general structure […], used a continuous, enzyme-coupled method reported previously (Smith et al. (2009) Anal Biochem 394, 101-109), in which the SRT1 product nicotinamide is first converted into nicotinic acid and ammonia by the action of PNC1, and the ammonia then used by GDH to convert α-ketoglutarate into glutamate. This reaction occurs with oxidation of NADH to NAD^+ which is accompanied by a change in absorbance at 340 nm (Δε340=-6,200 M^-1 cm^-1). Activator titrations were plotted as relative velocity (i.e., the ratio of vx, velocity in the presence of activator X, to vo, velocity in the absence of activator) vs. [X]o, initial concentration of activator, and fit by nonlinear least-squares to the mechanism-independent expression for enzyme activation of […] the maximum relative velocity (i.e., vx/vo at infinite [X]o) and EC50 is the activator concentration at which vx/vo=(RVmax-1)/2. EC50 is a function of the kinetic mechanisms of both catalysis and activation, and the concentrations of substrates.

SIRT1(183-664) = biological target: T2, SIRT1(183-664) (Homo sapiens, UniProt Q96EB6); assay: ITC binding of STACs to SIRT1(183-664); settings: dissociation constant of SRT:SIRT1 complex, read-out: Kx (μM), ITC
T2 construct: the truncated version used for biophysical studies SIRT1(183-664); made in house
T2 sequence (Q96EB6 183-664): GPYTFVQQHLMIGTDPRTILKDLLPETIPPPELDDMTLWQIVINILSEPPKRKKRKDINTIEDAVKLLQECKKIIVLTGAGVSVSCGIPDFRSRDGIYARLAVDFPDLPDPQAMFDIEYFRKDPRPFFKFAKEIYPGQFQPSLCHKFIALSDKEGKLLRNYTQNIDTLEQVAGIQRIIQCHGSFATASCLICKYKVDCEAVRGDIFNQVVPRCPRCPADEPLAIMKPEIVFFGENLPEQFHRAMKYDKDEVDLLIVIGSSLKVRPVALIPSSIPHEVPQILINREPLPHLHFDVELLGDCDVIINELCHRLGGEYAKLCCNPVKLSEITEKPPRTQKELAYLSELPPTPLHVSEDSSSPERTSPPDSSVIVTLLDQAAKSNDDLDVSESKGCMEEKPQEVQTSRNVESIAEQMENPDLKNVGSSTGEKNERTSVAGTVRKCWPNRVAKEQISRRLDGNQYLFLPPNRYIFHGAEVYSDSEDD
Protocol: All peptides were prepared by BioPeptide (San Diego, Calif.) and shown to be at least 95% pure by analytical HPLC analysis. Bovine glutamate dehydrogenase (GDH), α-ketoglutarate, NADH and NAD^+ were from Sigma Chemical Company. Full-length, human SIRT1 and the truncated version used for biophysical studies SIRT1(183-664) were prepared as described previously, and shown to have equivalent kinetic properties (Milne et al. (2007) Nature 450, 712-716). The nicotinamidase PNC1 was prepared as described by Denu and colleagues (Smith et al. (2009) Anal Biochem 394, 101-109). ITC experiments were performed using either a VP-ITC system or iTC200 system (MicroCal) at 26° C. in a buffer composed of 137 mM NaCl, 2.7 mM KCl, 1 mM MgCl2, 2 mM TCEP, 5% (v/v) glycerol and 50 mM HEPES-NaOH, pH 7.3. SIRT1(183-664) was purified and dialyzed against the buffer, centrifuged, and degassed before the experiment. The peptide and compounds were dissolved in the final dialysis buffer and their pH values were adjusted to match that of the protein solution. […] To characterize this interaction using the iTC200 system, 1 mM TAMRA-peptide was injected in 20 aliquots of 2 μL, (except the first injection, which was 0.5 μL) into a 0.202 mL sample cell containing 100 μM STAC. For STACs with poor solubility, the concentrations were adjusted accordingly. […] To characterize the interaction of a STAC with SIRT1(183-664) on the VP-ITC system, 100 μM enzyme was injected in 35 aliquots of 8 μL, (except the first injection, which was 2 μL) into a 1.47 mL sample cell containing 10 μM STAC. […] In all cases, data was corrected for the heat of dilution and fitted using a nonlinear least-squares routine using a single-site binding model with Origin for ITC v7.0383 (Microcal) with the stoichiometry (n), the enthalpy of the reaction (ΔH) and the association constant (Ka) calculated.

| Compound | Kd (TAMRA-peptide) | Emax (SIRT1 [1]) | EC1.5 uM (SIRT1 [1]) | EC1.5 for activation of SIRT1 (SIRT1 [2]; concentration for 1.5-fold activation) | EC50 (SIRT1 [2]; fit to eq (1), read-out: EC50 (Kx) for activation of SIRT1-catalyzed deacetylation of TAMRA-peptide) | Kd (SIRT1(183-664)) |
| --- | --- | --- | --- | --- | --- | --- |
| O=C(Nc1ccccc1-c1nc2cc(CCC3CCNCC3)cnc2s1)c1cccc(C2CCNC2)c1 (centres unmarked) [Compound 7] | 36 µM | ≥ 200% | A (EC1.5≦1 μM) | 0.1 µM | 500 nM |  |
| CCCNc1cc(-c2nc3c(NC(=O)c4ccc(CN5CCNCC5)cc4)cccc3[nH]2)ccn1 [Compound 13] |  | ≥ 200% | A (EC1.5≦1 μM) |  |  | 0.32 µM |
